Laboratory results reported in ChEMBL document CHEMBL1671662, “In vitro activities of telavancin and six comparator agents against anaerobic bacterial isolates” (2009).
Values after ≈ are worked out from the molar mass of the structure shown.

What was measured:
Clostridium spiroforme = assay: Antibacterial activity against Clostridium spiroforme by CLSI M11-A6 agar dilution method; type: functional; conditions: Thomasclavelia spiroformis
Flavonifractor plautii = assay: Antibacterial activity against Clostridium orbiscindens by CLSI M11-A6 agar dilution method; type: functional
[1] = test system: Prevotella melaninogenica; assay: Antibacterial activity against Prevotella melaninogenica by CLSI M11-A6 agar dilution method; type: functional
[2] = test system: Ruminococcus flavefaciens; assay: Antibacterial activity against Ruminococcus flavefaciens by CLSI M11-A6 agar dilution method; type: functional
Clostridium butyricum = assay: Antibacterial activity against Clostridium butyricum by CLSI M11-A6 agar dilution method; type: functional
Bacteroides fragilis = assay: Antibacterial activity against Bacteroides fragilis by CLSI M11-A6 agar dilution method; type: functional
[3] = test system: Streptococcus intermedius; assay: Antibacterial activity against Streptococcus intermedius by CLSI M11-A6 agar dilution method; type: functional
[4] = test system: Clostridium celerecrescens; assay: Antibacterial activity against Clostridium celerecrescens by CLSI M11-A6 agar dilution method; type: functional; conditions: Lacrimispora celerecrescens
Clostridium hathewayi = assay: Antibacterial activity against Clostridium hathewayi by CLSI M11-A6 agar dilution method; type: functional; conditions: Hungatella hathewayi
Anaerococcus tetradius = assay: Antibacterial activity against Anaerococcus tetradius by CLSI M11-A6 agar dilution method; type: functional
[5] = test system: Peptostreptococcus anaerobius; assay: Antibacterial activity against Peptostreptococcus anaerobius by CLSI M11-A6 agar dilution method; type: functional
Clostridium perfringens = assay: Antibacterial activity against Clostridium perfringens by CLSI M11-A6 agar dilution method; type: functional
Coriobacterium = assay: Antibacterial activity against […] by CLSI M11-A6 agar dilution method; type: functional
[6] = test system: Propionibacterium propionicum; assay: Antibacterial activity against Propionibacterium propionicus by CLSI M11-A6 agar dilution method; type: functional; conditions: Arachnia propionica
Collinsella aerofaciens = assay: Antibacterial activity against Colinsella aerofaciens by CLSI M11-A6 agar dilution method; type: functional
Prevotella intermedia = assay: Antibacterial activity against Prevotella intermedia by CLSI M11-A6 agar dilution method; type: functional
Odoribacter splanchnicus = assay: Antibacterial activity against Bacteroides splanchnicus by CLSI M11-A6 agar dilution method; type: functional
Clostridium scindens = assay: Antibacterial activity against Clostridium scindens by CLSI M11-A6 agar dilution method; type: functional
[7] = test system: Peptoniphilus asaccharolyticus; assay: Antibacterial activity against Peptoniphilus asaccharolyticus by CLSI M11-A6 agar dilution method; type: functional
[8] = test system: Catenibacterium mitsuokai; assay: Antibacterial activity against Catenibacterium mitsuokai by CLSI M11-A6 agar dilution method; type: functional
Fusobacterium varium = assay: Antibacterial activity against Fusobacterium varium by CLSI M11-A6 agar dilution method; type: functional
Bifidobacterium longum = assay: Antibacterial activity against Bifidobacterium longum by CLSI M11-A6 agar dilution method; type: functional
[9] = test system: Bifidobacterium adolescentis; assay: Antibacterial activity against Bifidobacterium adolescentis by CLSI M11-A6 agar dilution method; type: functional
Clostridium sporogenes = assay: Antibacterial activity against Clostridium sporogenes by CLSI M11-A6 agar dilution method; type: functional
[10] = test system: Streptococcus constellatus; assay: Antibacterial activity against Streptococcus constellatus by CLSI M11-A6 agar dilution method; type: functional
Clostridium tertium = assay: Antibacterial activity against Clostridium tertium by CLSI M11-A6 agar dilution method; type: functional
[11] = test system: Coprobacillus cateniformis; assay: Antibacterial activity against Coprobacillus cateniformis by CLSI M11-A6 agar dilution method; type: functional
Bilophila wadsworthia = assay: Antibacterial activity against Bilophila wadsworthia by CLSI M11-A6 agar dilution method; type: functional
Prevotella denticola = assay: Antibacterial activity against Prevotella P denticola by CLSI M11-A6 agar dilution method; type: functional
Hoylesella oralis = assay: Antibacterial activity against Prevotella oralis by CLSI M11-A6 agar dilution method; type: functional
Bifidobacterium breve = assay: Antibacterial activity against Bifidobacterium breve by CLSI M11-A6 agar dilution method; type: functional
[12] = test system: Sutterella wadsworthensis; assay: Antibacterial activity against Sutterella wadsworthensis by CLSI M11-A6 agar dilution method; type: functional
Clostridium leptum = assay: Antibacterial activity against Clostridium leptum by CLSI M11-A6 agar dilution method; type: functional
Bacteroides ovatus = assay: Antibacterial activity against Bacteroides ovatus by CLSI M11-A6 agar dilution method; type: functional
Parabacteroides merdae = assay: Antibacterial activity against Parabacteroides merdae by CLSI M11-A6 agar dilution method; type: functional
[13] = Antibacterial activity against Bifidobacterium infantis by CLSI M11-A6 agar dilution method; type: functional, Bifidobacterium longum subsp. infantis; conditions: Bifidobacterium longum
Clostridioides difficile = assay: Antibacterial activity against Clostridium difficile by CLSI M11-A6 agar dilution method; type: functional
Ruminococcus obeum = assay: Antibacterial activity against Ruminococcus obeum by CLSI M11-A6 agar dilution method; type: functional; conditions: Blautia obeum
Clostridium sp. = assay: Antibacterial activity against Clostridium sp. by CLSI M11-A6 agar dilution method; type: functional
Eggerthella lenta = assay: Antibacterial activity against Eggerthella lenta by CLSI M11-A6 agar dilution method; type: functional
Prevotella buccae = assay: Antibacterial activity against Prevotella buccae by CLSI M11-A6 agar dilution method; type: functional; conditions: Segatella buccae
Finegoldia magna = assay: Antibacterial activity against Finegoldia magna by CLSI M11-A6 agar dilution method; type: functional
Blautia producta = assay: Antibacterial activity against Ruminococcus productus by CLSI M11-A6 agar dilution method; type: functional

Q: Which MIC50 (Clostridium spiroforme) does the source give for `Cc1ncc([N+](=O)[O-])n1CCO` [METRONIDAZOLE] here?
A: 0.25 mg/L (≈ 1.46 µM)

Q: What about the MIC90 (Clostridium spiroforme) of the same molecule?
A: 1 mg/L (≈ 5.84 µM)

Q: What about the MIC50 (Flavonifractor plautii) of the same molecule?
A: 0.25 mg/L (≈ 1.46 µM)

Q: And the MIC90 (Flavonifractor plautii)?
A: 1 mg/L (≈ 5.84 µM)

Q: And the MIC50 [1]?
A: 0.5 mg/L (≈ 2.92 µM)

Q: What about the MIC90 [1] of the same molecule?
A: 1 mg/L (≈ 5.84 µM)

Q: And the MIC50 [2]?
A: ≤ 0.12 mg/L

Q: And the MIC90 [2]?
A: 0.25 mg/L (≈ 1.46 µM)

Q: And the MIC50 (Clostridium butyricum)?
A: 0.25 mg/L (≈ 1.46 µM)

Q: What about the MIC90 (Clostridium butyricum) of the same molecule?
A: 1 mg/L (≈ 5.84 µM)

Q: And the MIC50 (Bacteroides fragilis)?
A: 1 mg/L (≈ 5.84 µM)

Q: What about the MIC90 (Bacteroides fragilis) of the same molecule?
A: 2 mg/L (≈ 11.7 µM)

Q: And the MIC50 [3]?
A: 128 mg/L (≈ 748 µM)

Q: And the MIC90 [3]?
A: > 128 mg/L

Q: What about the MIC50 [4] of the same molecule?
A: 0.25 mg/L (≈ 1.46 µM)

Q: What about the MIC90 [4] of the same molecule?
A: 1 mg/L (≈ 5.84 µM)

Q: What about the MIC50 (Clostridium hathewayi) of the same molecule?
A: 0.25 mg/L (≈ 1.46 µM)

Q: And the MIC90 (Clostridium hathewayi)?
A: 0.5 mg/L (≈ 2.92 µM)

Q: And the MIC50 (Anaerococcus tetradius)?
A: 0.5 mg/L (≈ 2.92 µM)

Q: What about the MIC90 (Anaerococcus tetradius) of the same molecule?
A: 2 mg/L (≈ 11.7 µM)

Q: And the MIC50 [5]?
A: 0.5 mg/L (≈ 2.92 µM)

Q: What about the MIC90 [5] of the same molecule?
A: 2 mg/L (≈ 11.7 µM)

Q: And the MIC50 (Clostridium perfringens)?
A: 0.5 mg/L (≈ 2.92 µM)

Q: What about the MIC90 (Clostridium perfringens) of the same molecule?
A: 1 mg/L (≈ 5.84 µM)

Q: And the MIC50 (Coriobacterium)?
A: 1 mg/L (≈ 5.84 µM)

Q: What about the MIC90 (Coriobacterium) of the same molecule?
A: 128 mg/L (≈ 748 µM)

Q: And the MIC50 [6]?
A: 1 mg/L (≈ 5.84 µM)

Q: What about the MIC90 [6] of the same molecule?
A: 128 mg/L (≈ 748 µM)

Q: What about the MIC50 (Collinsella aerofaciens) of the same molecule?
A: 1 mg/L (≈ 5.84 µM)

Q: What about the MIC90 (Collinsella aerofaciens) of the same molecule?
A: 128 mg/L (≈ 748 µM)

Q: What about the MIC50 (Prevotella intermedia) of the same molecule?
A: 0.5 mg/L (≈ 2.92 µM)

Q: What about the MIC90 (Prevotella intermedia) of the same molecule?
A: 1 mg/L (≈ 5.84 µM)

Q: What about the MIC50 (Odoribacter splanchnicus) of the same molecule?
A: 0.25 mg/L (≈ 1.46 µM)

Q: And the MIC90 (Odoribacter splanchnicus)?
A: 1 mg/L (≈ 5.84 µM)

Q: What about the MIC50 (Clostridium scindens) of the same molecule?
A: 0.25 mg/L (≈ 1.46 µM)

Q: What about the MIC90 (Clostridium scindens) of the same molecule?
A: 1 mg/L (≈ 5.84 µM)

Q: What about the MIC50 [7] of the same molecule?
A: 0.5 mg/L (≈ 2.92 µM)

Q: What about the MIC90 [7] of the same molecule?
A: 2 mg/L (≈ 11.7 µM)

Q: And the MIC50 [8]?
A: 1 mg/L (≈ 5.84 µM)

Q: And the MIC90 [8]?
A: 128 mg/L (≈ 748 µM)

Q: What about the MIC50 (Fusobacterium varium) of the same molecule?
A: ≤ 0.12 mg/L

Q: What about the MIC90 (Fusobacterium varium) of the same molecule?
A: 0.25 mg/L (≈ 1.46 µM)

Q: What about the MIC50 (Bifidobacterium longum) of the same molecule?
A: 1 mg/L (≈ 5.84 µM)

Q: And the MIC90 (Bifidobacterium longum)?
A: 128 mg/L (≈ 748 µM)

Q: What about the MIC50 [9] of the same molecule?
A: 1 mg/L (≈ 5.84 µM)

Q: What about the MIC90 [9] of the same molecule?
A: 128 mg/L (≈ 748 µM)

Q: What about the MIC50 (Clostridium sporogenes) of the same molecule?
A: 0.25 mg/L (≈ 1.46 µM)

Q: What about the MIC90 (Clostridium sporogenes) of the same molecule?
A: 1 mg/L (≈ 5.84 µM)

Q: And the MIC50 [10]?
A: 128 mg/L (≈ 748 µM)

Q: What about the MIC90 [10] of the same molecule?
A: > 128 mg/L

Q: What about the MIC50 (Clostridium tertium) of the same molecule?
A: 0.25 mg/L (≈ 1.46 µM)

Q: What about the MIC90 (Clostridium tertium) of the same molecule?
A: 1 mg/L (≈ 5.84 µM)

Q: What about the MIC50 [11] of the same molecule?
A: 1 mg/L (≈ 5.84 µM)

Q: And the MIC90 [11]?
A: 128 mg/L (≈ 748 µM)

Q: What about the MIC50 (Bilophila wadsworthia) of the same molecule?
A: ≤ 0.12 mg/L

Q: What about the MIC90 (Bilophila wadsworthia) of the same molecule?
A: 0.25 mg/L (≈ 1.46 µM)

Q: And the MIC50 (Prevotella denticola)?
A: 0.5 mg/L (≈ 2.92 µM)

Q: And the MIC90 (Prevotella denticola)?
A: 1 mg/L (≈ 5.84 µM)

Q: What about the MIC50 (Hoylesella oralis) of the same molecule?
A: 0.5 mg/L (≈ 2.92 µM)

Q: And the MIC90 (Hoylesella oralis)?
A: 1 mg/L (≈ 5.84 µM)

Q: And the MIC50 (Bifidobacterium breve)?
A: 1 mg/L (≈ 5.84 µM)

Q: And the MIC90 (Bifidobacterium breve)?
A: 128 mg/L (≈ 748 µM)

Q: What about the MIC50 [12] of the same molecule?
A: 16 mg/L (≈ 93.5 µM)

Q: And the MIC90 [12]?
A: > 128 mg/L

Q: And the MIC50 (Clostridium leptum)?
A: 0.25 mg/L (≈ 1.46 µM)

Q: What about the MIC90 (Clostridium leptum) of the same molecule?
A: 1 mg/L (≈ 5.84 µM)

Q: What about the MIC50 (Bacteroides ovatus) of the same molecule?
A: 1 mg/L (≈ 5.84 µM)

Q: And the MIC90 (Bacteroides ovatus)?
A: 2 mg/L (≈ 11.7 µM)

Q: And the MIC50 (Parabacteroides merdae)?
A: 1 mg/L (≈ 5.84 µM)

Q: And the MIC90 (Parabacteroides merdae)?
A: 2 mg/L (≈ 11.7 µM)

Q: And the MIC50 [13]?
A: 1 mg/L (≈ 5.84 µM)

Q: What about the MIC90 [13] of the same molecule?
A: 128 mg/L (≈ 748 µM)

Q: What about the MIC50 (Clostridioides difficile) of the same molecule?
A: 0.5 mg/L (≈ 2.92 µM)

Q: What about the MIC90 (Clostridioides difficile) of the same molecule?
A: 0.5 mg/L (≈ 2.92 µM)

Q: What about the MIC50 (Ruminococcus obeum) of the same molecule?
A: ≤ 0.12 mg/L

Q: And the MIC90 (Ruminococcus obeum)?
A: ≤ 0.12 mg/L

Q: And the MIC50 (Clostridium sp.)?
A: 0.25 mg/L (≈ 1.46 µM)

Q: And the MIC90 (Clostridium sp.)?
A: 1 mg/L (≈ 5.84 µM)

Q: And the MIC50 (Eggerthella lenta)?
A: 1 mg/L (≈ 5.84 µM)

Q: What about the MIC90 (Eggerthella lenta) of the same molecule?
A: 128 mg/L (≈ 748 µM)

Q: What about the MIC50 (Prevotella buccae) of the same molecule?
A: 0.5 mg/L (≈ 2.92 µM)

Q: What about the MIC90 (Prevotella buccae) of the same molecule?
A: 1 mg/L (≈ 5.84 µM)

Q: What about the MIC50 (Finegoldia magna) of the same molecule?
A: 0.5 mg/L (≈ 2.92 µM)

Q: And the MIC90 (Finegoldia magna)?
A: 2 mg/L (≈ 11.7 µM)

Q: And the MIC50 (Blautia producta)?
A: ≤ 0.12 mg/L

Q: And the MIC90 (Blautia producta)?
A: 0.25 mg/L (≈ 1.46 µM)
